Assay results from patent publication US9096591B2, “Tetracyclic compounds” (Medivation Technologies, Inc., priority 2007, dated 2015).
Where two headings read alike, the source gives them in different places.

Experiments:
[1] = molecular target: T1, human recombinant histamine H2 receptor (Homo sapiens, UniProt P25021); experiment: Histamine H2 radioligand binding ([125I]Aminopotentidine)
T1 construct: expressed in transfected cells; host or cells: CHO-K1 cells
Procedure, shortened: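 This radioligand binding assay measured displacement of [125I]Aminopotentidine from recombinant human histamine H2 receptors. Compounds were dissolved in 1% DMSO vehicle. Specific binding was calculated by subtracting non-specific binding, defined using 3 μM Tiotidine, and activity was reported as percentage inhibition of that specific binding.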

[2] = molecular target: T2, human recombinant dopamine D2L receptor (Homo sapiens, UniProt P14416); experiment: Dopamine D2L radioligand binding ([3H]Spiperone); conditions: percent inhibition of specific binding
T2 construct: expressed in transfected cells; host or cells: CHO cells
Method: Non-specific binding was estimated in the presence of 10 μM Haloperidol. Receptor proteins were filtered and washed, the filters were then counted to determine [^3H]Spiperone specifically bound. […] Biochemical assay results are presented as the percent inhibition of specific binding in Table 6.

[3] = molecular target: T3, human recombinant adrenergic α2A receptor (Homo sapiens, UniProt P08913); experiment: Adrenergic α2A radioligand binding ([3H]MK-912); design: Inhibition of ligand binding, Adren. alpha2A: concentration or dose not given beside the values; conditions: for Inhibition of ligand binding, Adren. alpha2A: percent inhibition of specific binding
T3 construct: expressed in transfected cells; host or cells: insect Sf9 cells
T3 sequence (P08913 1-465): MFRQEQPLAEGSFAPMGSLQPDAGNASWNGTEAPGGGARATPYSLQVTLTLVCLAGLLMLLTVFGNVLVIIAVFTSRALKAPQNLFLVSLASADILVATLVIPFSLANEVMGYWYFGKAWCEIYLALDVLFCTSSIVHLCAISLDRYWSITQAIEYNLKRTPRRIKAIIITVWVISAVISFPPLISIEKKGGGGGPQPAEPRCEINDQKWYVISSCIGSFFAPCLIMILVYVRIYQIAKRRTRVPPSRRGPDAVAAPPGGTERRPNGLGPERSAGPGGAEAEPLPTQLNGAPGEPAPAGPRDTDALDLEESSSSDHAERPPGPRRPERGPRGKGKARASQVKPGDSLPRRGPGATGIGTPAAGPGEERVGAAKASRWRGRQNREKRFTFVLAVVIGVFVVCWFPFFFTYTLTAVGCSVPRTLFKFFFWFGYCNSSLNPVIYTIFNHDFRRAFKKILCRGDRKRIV
Method: To evaluate in radioligand binding assays the activity of compounds of the invention, human recombinant adrenergic α2A receptor expressed in insect Sf9 cells (Uhlen S et al. J Pharmacol Exp Ther. 271:1558, 1994) in a modified Tris-HCl buffer (50 mM Tris-HCl, pH 7.4, 12.5 mM MgCl2, 2 mM EDTA) was used. Compounds of invention were incubated with 1 nM [^3H]MK-912 for 60 minutes at 25° C. MK912 is (2S-trans)-1,3,4,5′,6,6′,7,12b-octahydro-1′,3′-dimethyl-spiro[2H-benzofuro[2,3-a]quinolizine-2,4′(1′H)-pyrimidin]-2′(3′H)-one hydrochloride Non-specific binding was estimated in the presence of 10 μM WB-4101 (2-(2,6-Dimethoxyphenoxyethyl)aminomethyl-1,4-benzodioxane hydrochloride). Receptor proteins were filtered and washed, the filters were then counted to determine [^3H]MK-912 specifically bound. […] Biochemical assay results are presented as the percent inhibition of specific binding in Table 6.

[4] = molecular target: T4, human recombinant histamine H1 receptor (Homo sapiens, UniProt P35367); experiment: Histamine H1 radioligand binding ([3H]Pyrilamine)
T4 construct: expressed in transfected cells; host or cells: CHO cells
Procedure, shortened: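 CHO-expressed receptor in modified Tris-HCl buffer (50 mM, pH 7.4; 2 mM MgCl2, 100 mM NaCl, 250 mM sucrose); bound ligand measured after filtration and washing.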

[5] = molecular target: T5, human recombinant serotonin (5-Hydroxytryptamine) 5-HT2A receptor (Homo sapiens, UniProt P28223); experiment: Serotonin 5-HT2A radioligand binding ([3H]Ketanserin); conditions: for Inhibition of ligand binding, Ser. 5-HT2A: percent inhibition of specific binding
T5 construct: expressed in transfected cells; host or cells: CHO-K1 cells
Method: Compounds of the invention were incubated with 0.5 nM [^3H]Ketanserin for 60 minutes at 25° C. Non-specific binding was estimated in the presence of 1 μM Mianserin. Receptor proteins were filtered and washed, the filters were then counted to determine [^3H]Ketanserin specifically bound. […] Biochemical assay results are presented as the percent inhibition of specific binding in Table 6.

[6] = percent inhibition of specific binding, screened at 1 μM, read-out: Inhibition of ligand binding, Hist. H2
[7] = percent inhibition of specific binding, screened at 1 μM, read-out: Inhibition of ligand binding, Hist. H1
[8] = 1 μM compound, 0.1 nM [125I]Aminopotentidine, read-out: Histamine Binding H2, percent inhibition of specific binding
[9] = 1 μM compound, […] [3H]Pyrilamine, read-out: Histamine Binding H1, percent inhibition of specific binding

T2 sequence (P14416 whole entry): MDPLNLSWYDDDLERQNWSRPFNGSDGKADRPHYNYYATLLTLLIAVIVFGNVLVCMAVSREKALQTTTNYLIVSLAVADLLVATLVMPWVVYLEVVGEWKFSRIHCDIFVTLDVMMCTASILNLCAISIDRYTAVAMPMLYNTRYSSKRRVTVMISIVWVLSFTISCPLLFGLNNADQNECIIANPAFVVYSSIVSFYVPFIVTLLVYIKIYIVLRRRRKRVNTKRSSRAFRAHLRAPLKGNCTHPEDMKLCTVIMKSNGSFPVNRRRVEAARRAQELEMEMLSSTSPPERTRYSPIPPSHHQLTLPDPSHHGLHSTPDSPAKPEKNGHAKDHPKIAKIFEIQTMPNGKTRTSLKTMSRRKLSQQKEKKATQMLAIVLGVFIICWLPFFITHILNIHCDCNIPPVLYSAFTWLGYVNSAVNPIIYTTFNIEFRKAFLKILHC
T5 sequence (P28223 whole entry): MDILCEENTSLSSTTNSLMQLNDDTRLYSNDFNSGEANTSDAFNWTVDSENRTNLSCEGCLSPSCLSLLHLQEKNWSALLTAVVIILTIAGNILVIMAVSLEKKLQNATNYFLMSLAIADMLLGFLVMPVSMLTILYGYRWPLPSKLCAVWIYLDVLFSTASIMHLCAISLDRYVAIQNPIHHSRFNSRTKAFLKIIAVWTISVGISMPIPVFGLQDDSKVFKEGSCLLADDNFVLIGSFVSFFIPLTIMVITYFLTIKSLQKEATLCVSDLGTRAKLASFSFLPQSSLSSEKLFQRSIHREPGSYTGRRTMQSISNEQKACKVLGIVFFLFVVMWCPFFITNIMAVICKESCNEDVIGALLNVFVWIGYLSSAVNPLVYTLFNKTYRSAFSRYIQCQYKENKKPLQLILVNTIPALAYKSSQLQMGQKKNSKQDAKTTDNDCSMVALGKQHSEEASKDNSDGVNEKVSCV
T4 sequence (P35367 whole entry): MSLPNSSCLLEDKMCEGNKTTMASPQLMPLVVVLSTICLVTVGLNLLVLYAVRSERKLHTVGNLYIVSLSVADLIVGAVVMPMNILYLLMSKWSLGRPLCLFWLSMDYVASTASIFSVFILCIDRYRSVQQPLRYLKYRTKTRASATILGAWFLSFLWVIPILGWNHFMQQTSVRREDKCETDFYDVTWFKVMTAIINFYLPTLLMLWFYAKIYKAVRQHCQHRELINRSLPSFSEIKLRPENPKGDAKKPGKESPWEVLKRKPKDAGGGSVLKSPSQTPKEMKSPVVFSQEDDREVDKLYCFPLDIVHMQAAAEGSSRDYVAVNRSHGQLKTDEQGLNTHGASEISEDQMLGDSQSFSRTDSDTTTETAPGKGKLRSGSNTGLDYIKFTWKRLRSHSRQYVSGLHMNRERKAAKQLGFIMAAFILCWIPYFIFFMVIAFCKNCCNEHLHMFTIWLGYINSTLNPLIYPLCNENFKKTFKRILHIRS
T1 sequence (P25021 whole entry): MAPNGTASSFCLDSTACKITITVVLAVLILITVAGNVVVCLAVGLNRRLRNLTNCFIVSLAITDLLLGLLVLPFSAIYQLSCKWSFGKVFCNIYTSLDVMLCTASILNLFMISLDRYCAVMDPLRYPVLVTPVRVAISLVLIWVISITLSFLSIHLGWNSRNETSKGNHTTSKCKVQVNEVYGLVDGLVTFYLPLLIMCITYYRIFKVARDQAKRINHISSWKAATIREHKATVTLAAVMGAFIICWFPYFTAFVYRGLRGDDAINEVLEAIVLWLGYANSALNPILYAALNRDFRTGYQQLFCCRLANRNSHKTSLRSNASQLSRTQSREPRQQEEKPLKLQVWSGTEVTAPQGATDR

| Structure (SMILES) | inhibition at 1 µM [1, 6] [%] | Inhibition of ligand binding, Dop. D2L [2] [%] | Inhibition of ligand binding, Adren. alpha2A [3] [%] | inhibition at 1 µM [4, 7] [%] | inhibition at 1 µM [1, 8] [%] | inhibition at 1 µM [4, 9] [%] | Inhibition of ligand binding, Ser. 5-HT2A [5] [%] | Hist. H2 ([1]; inhibition profile) | Adren. alpha2A ([3]; inhibition profile) | Ser. 5-HT2A ([5]; inhibition profile) | Hist. H1 ([4]; inhibition profile) | inhibition at 0.03 µM ([4]; 0.03 μM compound, […] [3H]Pyrilamine, read-out: Histamine Binding H1, percent inhibition of specific binding) [%] | inhibition at 0.1 µM ([4]; 0.1 μM compound, […] [3H]Pyrilamine, read-out: Histamine Binding H1, percent inhibition of specific binding) [%] |
| --- | --- | --- | --- | --- | --- | --- | --- | --- | --- | --- | --- | --- | --- |
| CC(=O)N1CCN(C(=O)Cn2c3c(c4cc(Cl)ccc42)CN(C)CC3)CC1 [Compound 297, 1-(4-Acetyl-piperazin-1-yl)-2-(8-chloro-2-methyl-1,2,3,4-tetrahydro-pyrido[4,3-b]indol-5-yl)-ethanone] | 3 | 0 | −2 | 43 |  |  |  |  |  |  |  |  |  |
| CN1CCc2c(c3cc(Cl)ccc3n2CC(=O)N2CCSCC2)C1 [Compound 239, 2-(8-chloro-1,2,3,4-tetrahydro-2-methylpyrido[4,3-b]indol-5-yl)-1-thiomorpholinoethanone] | 10 | −1 | 0 | 50 | 10 | 50 |  |  |  |  |  |  |  |
| CC1CN(C(=O)Cn2c3c(c4cc(Cl)ccc42)CN(C)CC3)CC(C)N1 (centres unmarked) [Compound 245] | 8 | 4 | 8 | 22 | 8 | 22 |  |  |  |  |  |  |  |
| CC1CCN(C(=O)Cn2c3c(c4cc(Cl)ccc42)CN(C)CC3)CC1 [Compound 237, 2-(8-chloro-1,2,3,4-tetrahydro-2-methylpyrido[4,3-b]indol-5-yl)-1-(4-methylpiperidin-1-yl)ethanone] | 24 | −1 | 26 | 77 | 24 | 77 |  |  |  |  |  |  |  |
| CN1CCc2c(c3cc(Cl)ccc3n2CCC(=O)N2CCCC2)C1 [Compound 240, 3-(8-chloro-1,2,3,4-tetrahydro-2-methylpyrido[4,3-b]indol-5-yl)-1-(pyrrolidin-1-yl)propan-1-one] | 23 | 9 | 36 | 60 | 23 | 60 |  |  |  |  |  |  |  |
| CN1CCc2c(c3cc(Cl)ccc3n2CC(=O)N2CCCCC2)C1 [Compound 236, 2-(8-chloro-1,2,3,4-tetrahydro-2-methylpyrido[4,3-b]indol-5-yl)-1-(piperidin-1-yl)ethanone] | 17 | 1 | 0 | 42 | 17 | 42 |  |  |  |  |  |  |  |
| Cc1ccc2c(c1)c1c(n2Cc2ccccc2)CCN(C)C1 [Compound 137, 5-benzyl-2,3,4,5-tetrahydro-2,8-dimethyl-1H-pyrido[4,3-b]indole] | 45 |  | 15 | 11 | 45 | 11 | −2 |  |  |  |  |  |  |
| CN1CCc2c(c3cc(Cl)ccc3n2CC(=O)N2CCCC2)C1 [Compound 243, 2-(8-chloro-1,2,3,4-tetrahydro-2-methylpyrido[4,3-b]indol-5-yl)-1-(pyrrolidin-1-yl)ethanone] | 17 | 8 | 3 | 84 | 17 | 84 |  |  |  |  |  |  |  |
| Cc1ccc2c(c1)c1c(n2CCc2ccc(C)nc2)CC[N+](C)([O-])C1 (centres unmarked) [Example 93, 2,8-dimethyl-5-(2-(6-methylpyridin-3-yl)ethyl)-2,3,4,5-tetrahydro-1H-pyrido[4,3-b]indole 2-oxide] |  |  |  |  |  |  |  | 19 | 1 | 4 | 68 |  |  |
| Cc1ccc(CCn2c3c(c4cc(C(=O)O)ccc42)CNCC3)cn1 [Compound 274, 2,3,4,5-tetrahydro-5-(2-(6-methylpyridin-3-yl)ethyl)-1H-pyrido[4,3-b]indole-8-carboxylic acid] | -2 |  | 7 | 1 |  |  | 6 |  |  |  |  |  |  |
| CN1CCc2c(c3cc(Cl)ccc3n2CC(=O)N2CCNC(=O)C2)C1 [Compound 246] | 16 | 1 | 21 | 18 | 16 | 18 |  |  |  |  |  |  |  |
| Cc1ccc2c(c1)c1c(n2CCCc2ccccn2)CCN(C)C1 [Compound 233, 2,3,4,5-tetrahydro-2,8-dimethyl-5-(3-(pyridin-2-yl)propyl)-1H-pyrido[4,3-b]indole] | 45 |  | 90 | 99 | 45 | 99 | 92 |  |  |  |  |  |  |
| Cc1ccc2c(c1)c1c(n2CCc2ccc(C)nc2)C(Br)C(=O)N(C)C1 (centres unmarked) [Compound 232, 4-bromo-1,2-dihydro-2,8-dimethyl-5-(2-(6-methylpyridin-3-yl)ethyl)-4H-pyrido[4,3-b]indol-3(5H)-one] | 3 |  | 2 | -6 | 3 | -6 | −10 |  |  |  |  |  |  |
| Cc1ccc2c(c1)c1c(n2CCN2CCCC2)CCN(C)C1 [Compound 221, 2,3,4,5-tetrahydro-2,8-dimethyl-5-(2-(pyrrolidin-1-yl)ethyl)-1H-pyrido[4,3-b]indole] | 52 |  | 37 | 78 | 52 | 78 | 46 |  |  |  |  |  |  |
| CCN1CCc2c(c3cc(C)ccc3n2CCc2ccncc2)C1 [Compound 27, 2-ethyl-2,3,4,5-tetrahydro-8-methyl-5-(2-(pyridin-4-yl)ethyl)-1H-pyrido[4,3-b]indole] | 32 |  | 53 | 99 | 32 | 99 | 63 |  |  |  |  | 58 | 77 |
| CN1CCc2c(c3cc(I)ccc3n2CCc2ccccc2F)C1 [Compound 89, 5-(2-fluorophenethyl)-2,3,4,5-tetrahydro-8-iodo-2-methyl-1H-pyrido[4,3-b]indole] | 88 |  | 98 | 97 | 88 | 97 | 90 |  |  |  |  |  |  |
| Cc1ccc2c(c1)c1c(n2CCc2ccc(C)nc2)CCNC1 [Compound 230, 2,3,4,5-tetrahydro-8-methyl-5-(2-(6-methylpyridin-3-yl)ethyl)-1H-pyrido[4,3-b]indole] | 30 |  | 56 | 93 | 6 | 46 | 33 |  |  |  |  |  |  |
